Results on one compound are retold here after ChEMBL document CHEMBL3639039, “Small molecule inhibitors of RGS proteins” (2014).

One may read the IC50 as the concentration needed to halve the response being measured.

Test [1] deals with Regulator of G-protein signaling 16 (Homo sapiens, UniProt O15492). The test is described as follows: Inhibitory Assay: FCPIA Characterization of RGS Inhibitory Activity: CCG-50014 (FIG. 1) was originally identified as a potential inhibitor of RGS8 and RGS16 in a polyplex high throughput screen to identify inhibitors of the RGS-Gα interaction [4]. This activity was confirmed by analyzing the effect of CCG-50014 on several different RGS proteins with freshly reordered compound using multiplexed ….

Test [2] concerns the target Regulator of G-protein signaling 19 (Homo sapiens, UniProt P49795). The description is as above.

Regulator of G-protein signaling 16, sequence (O15492 whole entry, looked up, stated change not applied): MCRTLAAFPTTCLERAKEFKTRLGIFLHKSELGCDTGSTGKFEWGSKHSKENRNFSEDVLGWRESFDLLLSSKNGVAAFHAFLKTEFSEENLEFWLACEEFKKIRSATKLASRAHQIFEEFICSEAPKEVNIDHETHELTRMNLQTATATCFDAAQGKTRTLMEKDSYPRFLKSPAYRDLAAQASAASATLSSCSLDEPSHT
Regulator of G-protein signaling 19, sequence (P49795 whole entry, looked up, change not shown): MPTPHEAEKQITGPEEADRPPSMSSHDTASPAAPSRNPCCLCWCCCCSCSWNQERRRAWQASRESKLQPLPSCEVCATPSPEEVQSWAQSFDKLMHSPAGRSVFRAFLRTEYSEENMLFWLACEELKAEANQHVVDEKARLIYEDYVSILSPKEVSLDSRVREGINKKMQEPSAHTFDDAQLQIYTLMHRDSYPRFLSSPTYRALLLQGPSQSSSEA

As for `Cc1ccc(-n2sc(=O)n(Cc3ccc(F)cc3)c2=O)cc1`, the half-inhibitory concentration (IC50) in test [1] worked out at 3.5 µM; in test [2] it was 0.12 µM.
